Columns and labels:
Assay in all cases: Test G preemergence/postemergence greenhouse plant response rating 0 to 100
alfalfa = type: in vivo, Medicago ativa; settings: 0 to 100 scale
Excerpt: (§1) Seeds, rhizomes, or plant parts of alfalfa (Medicago ativa), annual bluegrass (Poa annua), bermudagrass (Cynodon dactylon), broadleaf signalgrass (Brachiaria plantaginea), common purslane (Portulaca oleracea), common ragweed (Ambrosia elatior), […] (Paspalum dilatatum), goosegrass (Eleusine indica), guineagrass (Panicum maximum), […] exaltata), johnsongrass (Sorghum halepense), large crabgrass (Digitaria sanguinalis), peanut (Arachis hypoagaea), pitted morningglory (Ipomoea lacunosa), purple nutsedge (Cyperus rotundus), sandbur (Cenchrus echinatus), smooth crabgrass (Digitaria ischaemum) and yellow nutsedge (Cyperus esculentus) were planted into greenhouse pots containing greenhouse planting medium. Each pot contained only one plant species. The test compound was dissolved in a non-phytotoxic solvent and applied preemergence and/or postemergence to the plants. Preemergence applications were made within one day of planting the seeds or plant parts. Postemergence applications were applied when the plants were in the two to four leaf stage (three to twenty cm). Test chemicals were dissolved in a non-phytotoxic solvent and applied preemergence and postemergence to the plants. Untreated control plants and treated plants were placed in the greenhouse and visually evaluated for injury at 13 to 21 days after herbicide application. […] A dash (-) response indicates no test result.

annual bluegrass = type: in vivo, Poa annua; settings: 0 to 100 scale
Excerpt: as §1

bermudagrass = type: in vivo, Cynodon dactylon; settings: 0 to 100 scale
Excerpt: as §1

broadleaf signalgrass = type: in vivo, Brachiaria plantaginea; settings: 0 to 100 scale
Excerpt: as §1

common purslane = type: in vivo, Portulaca oleracea; settings: 0 to 100 scale
Excerpt: as §1

common ragweed = type: in vivo, Ambrosia elatior; settings: 0 to 100 scale
Excerpt: as §1

dallisgrass = type: in vivo, Paspalum dilatatum; settings: 0 to 100 scale
Excerpt: as §1

goosegrass = type: in vivo, Eleusine indica; settings: 0 to 100 scale
Excerpt: as §1

guineagrass = type: in vivo, Panicum maximum; settings: 0 to 100 scale
Excerpt: as §1

itchgrass = type: in vivo, Rottboellia exaltata; settings: 0 to 100 scale
Excerpt: as §1

johnsongrass = type: in vivo, Sorghum halepense; settings: 0 to 100 scale
Excerpt: as §1

large crabgrass = type: in vivo, Digitaria sanguinalis; settings: 0 to 100 scale
Excerpt: as §1

peanut = type: in vivo, Arachis hypoagaea; settings: 0 to 100 scale
Excerpt: as §1

pitted morningglory = type: in vivo, Ipomoea lacunosa; settings: 0 to 100 scale
Excerpt: as §1

purple nutsedge = type: in vivo, Cyperus rotundus; settings: Rate 125 g/ha, 0 to 100 scale
Excerpt: as §1

sandbur = type: in vivo, Cenchrus echinatus; settings: 0 to 100 scale
Excerpt: as §1

yellow nutsedge = type: in vivo, Cyperus esculentus; settings: Rate 125 g/ha, 0 to 100 scale
Excerpt: as §1

C=CCN1C(=O)COc2cc(F)c(-c3nn4c(c3Cl)CCCC4)cc21 [Compound 33]
Plant response rating, Alfalfa Var. (alfalfa; POSTEMERGENCE, Rate 125 g/ha): 0 | Plant response rating, Alfalfa Var. (alfalfa; POSTEMERGENCE, Rate 250 g/ha): 0 | Plant response rating, Alfalfa Var. (alfalfa; PREEMERGENCE, Rate 125 g/ha): 0 | Plant response rating, Alfalfa Var. (alfalfa; PREEMERGENCE, Rate 250 g/ha): 0 | Plant response rating, Ann Bluegrass (annual bluegrass; POSTEMERGENCE, Rate 125 g/ha): 0 | Plant response rating, Ann Bluegrass (annual bluegrass; POSTEMERGENCE, Rate 250 g/ha): 0 | Plant response rating, Ann Bluegrass (annual bluegrass; PREEMERGENCE, Rate 125 g/ha): 0 | Plant response rating, Ann Bluegrass (annual bluegrass; PREEMERGENCE, Rate 250 g/ha): 0 | Plant response rating, Bermudagrass (bermudagrass; POSTEMERGENCE, Rate 125 g/ha): 0 | Plant response rating, Bermudagrass (bermudagrass; POSTEMERGENCE, Rate 250 g/ha): 0 | Plant response rating, Bermudagrass (bermudagrass; PREEMERGENCE, Rate 125 g/ha): 0 | Plant response rating, Bermudagrass (bermudagrass; PREEMERGENCE, Rate 250 g/ha): 0 | Plant response rating, Brdlf Sgnlgrass (broadleaf signalgrass; POSTEMERGENCE, Rate 125 g/ha): 0 | Plant response rating, Brdlf Sgnlgrass (broadleaf signalgrass; POSTEMERGENCE, Rate 250 g/ha): 0 | Plant response rating, Brdlf Sgnlgrass (broadleaf signalgrass; PREEMERGENCE, Rate 125 g/ha): 0 | Plant response rating, Brdlf Sgnlgrass (broadleaf signalgrass; PREEMERGENCE, Rate 250 g/ha): 0 | Plant response rating, Cmn Purslane (common purslane; POSTEMERGENCE, Rate 125 g/ha): 100 | Plant response rating, Cmn Purslane (common purslane; POSTEMERGENCE, Rate 250 g/ha): 80 | Plant response rating, Cmn Purslane (common purslane; PREEMERGENCE, Rate 125 g/ha): 0 | Plant response rating, Cmn Purslane (common purslane; PREEMERGENCE, Rate 250 g/ha): 40 | Plant response rating, Cmn Ragweed (common ragweed; POSTEMERGENCE, Rate 125 g/ha): 80 | Plant response rating, Cmn Ragweed (common ragweed; POSTEMERGENCE, Rate 250 g/ha): 50 | Plant response rating, Cmn Ragweed (common ragweed; PREEMERGENCE, Rate 125 g/ha): 0 | Plant response rating, Cmn Ragweed (common ragweed; PREEMERGENCE, Rate 250 g/ha): 0 | Plant response rating, Dallisgrass (dallisgrass; POSTEMERGENCE, Rate 125 g/ha): 0 | Plant response rating, Dallisgrass (dallisgrass; POSTEMERGENCE, Rate 250 g/ha): 0 | Plant response rating, Dallisgrass (dallisgrass; PREEMERGENCE, Rate 125 g/ha): 0 | Plant response rating, Dallisgrass (dallisgrass; PREEMERGENCE, Rate 250 g/ha): 0 | Plant response rating, Goosegrass (goosegrass; POSTEMERGENCE, Rate 125 g/ha): 0 | Plant response rating, Goosegrass (goosegrass; POSTEMERGENCE, Rate 250 g/ha): 0 | Plant response rating, Goosegrass (goosegrass; PREEMERGENCE, Rate 125 g/ha): 0 | Plant response rating, Goosegrass (goosegrass; PREEMERGENCE, Rate 250 g/ha): 0 | Plant response rating, Guineagrass (guineagrass; POSTEMERGENCE, Rate 125 g/ha): 0 | Plant response rating, Guineagrass (guineagrass; POSTEMERGENCE, Rate 250 g/ha): 0 | Plant response rating, Guineagrass (guineagrass; PREEMERGENCE, Rate 125 g/ha): 0 | Plant response rating, Guineagrass (guineagrass; PREEMERGENCE, Rate 250 g/ha): 0 | Plant response rating, Itchgrass (itchgrass; POSTEMERGENCE, Rate 125 g/ha): 0 | Plant response rating, Itchgrass (itchgrass; POSTEMERGENCE, Rate 250 g/ha): 0 | Plant response rating, Itchgrass (itchgrass; PREEMERGENCE, Rate 125 g/ha): 0 | Plant response rating, Itchgrass (itchgrass; PREEMERGENCE, Rate 250 g/ha): 0 | Plant response rating, Johnsongrass (johnsongrass; POSTEMERGENCE, Rate 125 g/ha): 0 | Plant response rating, Johnsongrass (johnsongrass; POSTEMERGENCE, Rate 250 g/ha): 0 | Plant response rating, Johnsongrass (johnsongrass; PREEMERGENCE, Rate 125 g/ha): 0 | Plant response rating, Johnsongrass (johnsongrass; PREEMERGENCE, Rate 250 g/ha): 0 | Plant response rating, Large Crabgrass (large crabgrass; POSTEMERGENCE, Rate 125 g/ha): 0 | Plant response rating, Large Crabgrass (large crabgrass; POSTEMERGENCE, Rate 250 g/ha): 0 | Plant response rating, Large Crabgrass (large crabgrass; PREEMERGENCE, Rate 125 g/ha): 0 | Plant response rating, Large Crabgrass (large crabgrass; PREEMERGENCE, Rate 250 g/ha): 0 | Plant response rating, Peanuts (peanut; POSTEMERGENCE, Rate 125 g/ha): 0 | Plant response rating, Peanuts (peanut; POSTEMERGENCE, Rate 250 g/ha): 0 | Plant response rating, Peanuts (peanut; PREEMERGENCE, Rate 125 g/ha): 0 | Plant response rating, Peanuts (peanut; PREEMERGENCE, Rate 250 g/ha): 0 | Plant response rating, Pit Morninglory (pitted morningglory; POSTEMERGENCE, Rate 125 g/ha): 30 | Plant response rating, Pit Morninglory (pitted morningglory; POSTEMERGENCE, Rate 250 g/ha): 100 | Plant response rating, Pit Morninglory (pitted morningglory; PREEMERGENCE, Rate 125 g/ha): 0 | Plant response rating, Pit Morninglory (pitted morningglory; PREEMERGENCE, Rate 250 g/ha): 0 | Plant response rating, Purple Nutsedge (purple nutsedge; POSTEMERGENCE): 10 | Plant response rating, Purple Nutsedge (purple nutsedge; PREEMERGENCE): 0 | Plant response rating, S. Sandbur (sandbur; POSTEMERGENCE, Rate 125 g/ha): 0 | Plant response rating, S. Sandbur (sandbur; POSTEMERGENCE, Rate 250 g/ha): 0 | Plant response rating, S. Sandbur (sandbur; PREEMERGENCE, Rate 125 g/ha): 0 | Plant response rating, S. Sandbur (sandbur; PREEMERGENCE, Rate 250 g/ha): 0 | Plant response rating, Yellow Nutsedge (yellow nutsedge; POSTEMERGENCE): 0 | Plant response rating, Yellow Nutsedge (yellow nutsedge; PREEMERGENCE): 0

Source: US6358885B1, “Substituted phenylheterocyclic herbicides” (Mississippi State University, priority 1992, dated 2002)
